According to patent publication US20080269202A1, “Novel 2,3-benzodiazepine derivatives and their use as antipsychotic agents” (Teva Pharmaceutical Industries Ltd., priority 2007, published 2008):
Like-named read-outs stand apart in the source and are kept apart here.

Columns and labels:
[1] = tested on: apomorphine-induced climbing; experiment: apomorphine-induced climbing test in mice; assay type: in vivo, CD1 mice; settings: Mus musculus, read-out: Climbing ED50 (mg/kg ip.)
Procedure: (§1) Anti-apomorphine effects were investigated in the climbing test in mice mediated through the mesolimbic and stereotypy test in rats mediated through the nigrostriatal system. Conventional antipsychotics antagonize both apomorphine-induced behaviours, while known atypical antipsychotics are weaker against apomorphine stereotypy.
The climbing test was carried out according to Protais et al. (Protais, P. et al. Psychopharmacologia, 1976, 50, 1.) Stereotyped behavior was induced in food deprived (for 16 hours) male CD1 mice weighing 20-25 g body by apomorphine HCl (SIGMA) in a s.c. dose of 2 mg/kg. Mice were placed individually into cylinders having 12 cm diameter and consisting of vertical bars of 2 mm diameter where apomorphine treated animals tended to adopt a vertical position in contrary to vehicle treated controls. Test substances were applied ip. 30 min before apomorphine.
10 and 20 min after apomorphine treatment the climbing behaviour was evaluated by scores of 0-2. 10 mice/group were used. The scores of the two readings were summed individually, meaned and compared to the control. The ED50 values were calculated by Litchfield-Wilcoxon's method (Litchfield Jr. J. T., Wilcoxon, F. J. Pharmacol. Exp. Ther. 1949, 96, 49,).

[2] = tested on: catalepsy; experiment: catalepsy test in rats; assay type: in vivo, CDBR rats; settings: sum of 8 readings over 4 hours
From the text: In order to investigate the potential side effect profile, the catalepsy test in rats has been carried out according to Costall and Naylor (Costall, B., Naylor, R. J. Arzneimittelforschung/Drug Res., 1973, 23, 674).
Catalepsy is defined as a failure to correct an externally imposed, unusual posture over a prolonged time. Neuroleptics which have direct inhibitory action on the nigrostriatal dopamine system induce catalepsy. It may be reflected by the Parkinson-like extrapyramidal symptoms seen clinically with administration of classical antipsychotics. The experiments were carried out in male CDBR rats weighing 300-400 g. The volume of administration was 0.25 ml/100 g body weight. The animals were starved for 16 hours before treatment, water was delivered ad libitum. After intraperitoneal administration of the test substances, the forepaws of the rats were placed on a horizontal stainless steel bar elevated to 10 cm high, while the hind paws remained on a metal plate. The semi-automatic 5-channel catalepsy meter measured the time spent in this unusual posture by an electronic stop-clock. The catalepsy time was scored from 0 to 5 according to the time spent in the unusual posture. […] Means of groups were calculated.

[3] = target: T1, serotonergic receptors (Rattus norvegicus, UniProt P19327); experiment: in vitro binding profile to serotonergic receptors (Table 3); settings: rat hippocampal membranes, ligand [3H]-8-OH-DPAT; read-out: 5HT1A binding
T1 construct: other: rat hippocampal membranes, ligand [3H]-8-OH-DPAT
T1 sequence (P19327 1-422): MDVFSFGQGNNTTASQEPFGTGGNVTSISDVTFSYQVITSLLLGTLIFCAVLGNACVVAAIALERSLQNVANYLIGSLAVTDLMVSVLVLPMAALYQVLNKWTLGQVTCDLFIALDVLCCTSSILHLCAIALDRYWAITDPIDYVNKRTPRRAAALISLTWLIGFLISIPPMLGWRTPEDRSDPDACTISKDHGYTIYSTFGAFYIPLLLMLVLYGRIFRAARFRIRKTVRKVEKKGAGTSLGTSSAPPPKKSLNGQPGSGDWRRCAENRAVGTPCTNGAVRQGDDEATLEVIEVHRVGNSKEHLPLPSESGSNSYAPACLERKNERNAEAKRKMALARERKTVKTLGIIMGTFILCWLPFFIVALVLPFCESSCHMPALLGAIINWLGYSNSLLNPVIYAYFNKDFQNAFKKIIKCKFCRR
From the text: (§2) The new 2,3-benzodiazepine atypical antipsychotic agents of formula (I) of the present invention influence dopaminergic neurotransmission by a unique indirect fashion, differently from both the first and second generation antipsychotics. The in vitro binding profile of these compounds (Table 3) differs from that of the first generation antipsychotics which bind to dopaminergic receptors and second generation antipsychotics, representatives of which show affinity for dopaminergic, serotonergic, or adrenergic receptors.

[4] = target: T2, adrenergic receptors; experiment: in vitro binding profile to adrenergic receptors (Table 3); settings: rat cerebral cortical membranes, ligand [3H]prazosin; read-out: α1 binding
T2 construct: other: rat cerebral cortical membranes, ligand [3H]prazosin
From the text: as §2

[5] = target: T3, adrenergic receptors; experiment: as above; settings: rat cerebral cortical membranes, ligand [3H]yohimbine; read-out: α2 binding
T3 construct: other: rat cerebral cortical membranes, ligand [3H]yohimbine
From the text: as §2

[6] = tested on: apomorphine-induced stereotyped behavior; experiment: apomorphine-induced stereotypy; assay type: in vivo, CD1 mice; settings: Mus musculus, read-out: Stereotypy ED50 (mg/kg po.)
From the text: as §1
Apomorphine-induced stereotypy was investigated according to Costall and Naylor (B. Costall and R. J. Naylor, Eur. J. Pharmacol. 1972, 18, 95) in male CD1 mice of 20-25 g body weight after 16 hours deprivation of food. 30 min before treatment mice were individually placed into small, transparent acrylic cages for habituation. Test substances were administered orally in a volume of 0.1 ml/10 g. 30 min later mice were treated with apomorphine HCl (SIGMA) in a subcutaneous dose of 2 mg/kg. […] The scores were summed individually, meaned and compared to the control group. The ED50 values were calculated by Litchfield-Wilcoxon's method (J. Pharmacol. Exp. Ther. 1949, 96, 49,).

[7] = tested on: Adenosine transporter; experiment: in vitro inhibition, adenosine transporter; assay type: binding; settings: conc: 10 μM
[8] = mice, ip. 30 min before apomorphine 2 mg/kg s.c.
[9] = mice, po. 30 min before apomorphine 2 mg/kg s.c.

With `COc1cc2c(cc1OC)C(c1ccc(N)c(C)c1)=NN(c1nncs1)[C@H](C)C2` [Example 110] the ED50 [1, 8] was 14.6 mg/kg, the Catalapsy scores ([2]; dose 10 mg/kg ip) was 10:0.375 and the Ki [3] was greater than 10 µM. For the same compound, the melting point was 143 °C, the Ki [4] was greater than 10 µM and the Ki [5] was greater than 10 µM. For the same compound, the ED50 [6, 9] was 3.5 mg/kg and the “Inhibition in %, Adenosine transporter” value [7] was 94%.

With `COc1cc2c(cc1OC)C(c1ccc(N)c(C)c1)=NN(c1ncon1)[C@H](C)C2` [Example 104] the ED50 [1, 8] was 7.7 mg/kg, the Catalapsy scores ([2]; dose 40 mg/kg ip) was 40:0 and the Ki [3] was greater than 10 µM. It also gave a Ki [4] greater than 10 µM, a Ki [5] greater than 10 µM and an ED50 [6, 9] of 6.97 mg/kg. The “Inhibition in %, Adenosine transporter” value [7] was 96%.

In the case of `CNC(=O)N1N=C(c2ccc(N)cc2)c2cc(OC)c(OC)cc2C[C@H]1C` [Example 121], the ED50 [1] is reported as 4.31 mg/kg, the Catalapsy scores ([2]; dose 10 mg/kg ip) is reported as 10:0 and the Ki [3] is reported as greater than 10 µM. For the same compound, the melting point was 140 to 144 °C, the Ki [4] was greater than 10 µM and the Ki [5] was greater than 10 µM. The ED50 [6] was 3.54 mg/kg and the “Inhibition in %, Adenosine transporter” value [7] was 87%.

With `CNC(=O)N1N=C(c2ccc(N)c(C)c2)c2cc(OC)c(OC)cc2C[C@H]1C` [Example 123] the ED50 [1] was 9.2 mg/kg, the Catalapsy scores ([2]; dose 40 mg/kg ip) was 40:0 and the Ki [3] was greater than 10 µM. It also gave a melting point of 147 °C, a Ki [4] greater than 10 µM and a Ki [5] greater than 10 µM. For the same compound, the ED50 [6] was 7.52 mg/kg and the “Inhibition in %, Adenosine transporter” value [7] was 90%.
